In brackets after ≈: the same amount, converted by molar mass. Where two headings read alike, the source gives them in different places.
Columns and labels:
[1] = system: Diplococcus pneumoniae; assay: in vivo protection of mice challenged with a fatal bacterial infection; settings: Streptococcus pneumoniae, 1 and 4 hours after challenge, read-out: dose required per treatment to protect fifty percent of the infected mice (ED50)
Description: (§1) The following example illustrates the in vivo activity of the compounds of this invention.
(§2) Several groups of 10 mice are challenged with a fatal bacterial infection. Various dose levels of the test compound are administered orally or subcutaneously to separate groups of these animals 1 and 4 hours after challenge. After three or four days, depending upon the test organism, the number of survivors are recorded at each dose level and the dose required per treatment to protect fifty percent of the infected mice (ED50) is calculated by the method described by Reed and Muench, Amer. J. Hyg. 27, 493-497 (1938).

[2] = system: Salmonella schottmuelleri; assay: as above; settings: sc, subcutaneous, 1 and 4 hours after challenge, read-out: dose required per treatment to protect fifty percent of the infected mice (ED50)
Description: as §1, §2

[3] = system: Streptococcus pyogenes; assay: as above; settings: 1 and 4 hours after challenge, read-out: dose required per treatment to protect fifty percent of the infected mice (ED50)
Description: as §1, §2

[4] = system: Staphylococcus aureus; assay: in vitro minimal inhibitory concentration, two-fold serial dilutions in trypticase soy broth; assay type: cell-based; settings: 24 hours at 37° C.
Description: (§3) The following example illustrates the in vitro activity of the compounds of this invention.
(§4) Two-fold serial dilutions of the test compound are made in trypticase soy broth. A series of tubes of both containing different concentrations of the test compound are inoculated with the particular bacterial culture used for in vitro activity. The inoculated tubes are examined for the inhibition of bacterial growth after 24 hours of incubation at 37° C. The following table summarizes the minimal inhibitory concentration (MIC) for the various bacterial cultures tested with the compound 7-[2-amino-2-(3,4-methylenedioxyphenyl)acetamido]desacetoxycephalosporanicacid.

[5] = system: Diplococcus pneumoniae; assay: as above; assay type: cell-based; settings: Streptococcus pneumoniae, 24 hours at 37° C.
Description: as §3, §4

[6] = system: Salmonella schottmuelleri; assay: as above; assay type: cell-based; settings: 24 hours at 37° C.
Description: as §3, §4

[7] = system: Escherichia coli; assay: as above; assay type: cell-based; settings: 24 hours at 37° C.
Description: as §3, §4

[8] = system: Streptococcus pyogenes; assay: as above; assay type: cell-based; settings: 24 hours at 37° C.
Description: as §3, §4

CC1=C(C(=O)O)N2C(=O)C(NC(=O)C(N)c3ccc4c(c3)OCO4)C2SC1 (stereo not shown) [7-[2-Amino-2-(3,4-methylenedioxyphenyl)acetamido] desacetoxycephalosporanic acid]
ED50 ([1]; po, per os): 45 mg/kg
ED50 ([1]; sc, subcutaneous): 40 mg/kg
ED50 [2]: 26 mg/kg
ED50 ([3]; po, per os): 1 mg/kg
ED50 ([3]; sc, subcutaneous): 0.9 mg/kg
MIC [4]: 1.6 µg/mL (≈ 4.09 µM)
MIC [5]: 3.1 µg/mL (≈ 7.92 µM)
MIC [6]: 50 µg/mL (≈ 128 µM)
MIC [7]: 50 µg/mL (≈ 128 µM)
MIC [8]: 0.8 µg/mL (≈ 2.04 µM)

Reference: patent US4020060A, “7-[α-Amino- ω-(3,4-methylenedioxyphenyl)acylamido]cephalosporanic acid derivatives” (Richardson-Merrell Inc., priority 1975, dated 1977)
